From publication PMC10728895, “Stapled Phd Peptides Inhibit Doc Toxin Induced Growth Arrest in Salmonella” (ACS Chemical Biology, 2023)
Positions of bridges follow the written chain, without caps; N, C: chain ends. Non-standard residues stand in square brackets, D forms with d. Residues, ends and D or L forms follow the SMILES beside them. *: point of attachment. 5FAM = O=C1OC2(c3ccc(O)cc3Oc3cc(O)ccc32)c2ccc(C(=O)*)cc21; S5 = C=CCCC[C@](C)(N)C(=O)O; Nle = CCCC[C@H](N)C(=O)O

Experiments:
E. coli MG1655 = test: Peptide uptake in E. coli by flow cytometry; type: cell-based; conditions: 5 μM FAM-labeled peptide in PBS, 2 h, 37 °C, E. coli MG1655, trypan blue quench, mean ± SD
Description: E. coli MG1655 strain was grown in LB medium to an OD600 of around 0.5. Approximately 10^7 cells were washed once with PBS and subsequently incubated with 5 μM of the indicated 5(6)-carboxyfluorescein-labeled Phd^52–73 peptide in PBS (500 μL) for 2 h at 37 °C. Bacteria were washed twice with PBS, and trypan blue (1 mg mL^–1) in PBS was added and incubated for 10 min at RT. Bacteria were washed an additional time with PBS and resuspended in 2 mL of PBS. Flow cytometry analysis was performed using a ThermoFisher Attune NxT and a blue laser (BL1) for fluorescein excitation.

[1] = tested on: S. typhimurium (14028s) glmS::mCherry strain; test: Peptide uptake in S. typhimurium by flow cytometry; type: cell-based; conditions: 10 μM FAM-labeled peptide, RT
Description: S. typhimurium (14028s) glmS::mCherry strain was grown overnight in LB medium containing 1% glucose. The culture was then diluted to an OD600 of approximately 0.1 into 200 μL of fresh M9 minimal medium supplemented with 0.5% arabinose containing 2 or 10 μM of the indicated 5(6)-carboxyfluorescein-labeled Phd^52–73 peptide. The samples were incubated on the bench at RT for 4 or 22 h with no access to light. Bacteria were then spun down, washed with 1 mL of PBS solution, and finally resuspended in 1 mL of PBS solution for flow cytometry analysis (BD LSR II). Constitutively expressed mCherry was used to discriminate bacteria from the debris in each sample.

DocSTm toxin = conditions: DocSTm 5 μM, peptide 50 μM; for Average Tm of DocSTm in the presence of peptide: pH 8.0, average ± SD, replicates 3-48 (Table S3)
Method in brief: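 Thermal shift with 5 μM recombinant Doc toxin and 50 μM Phd peptides in 20 mM K2HPO4, 50 mM (NH4)2SO4, pH 8.0, SYPRO Orange 3×, ramped 25–95 °C. Tm from Boltzmann fit; ΔTm is peptide-bound minus free DocSTm Tm, triplicates.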

[2] = tested on: DocSTm (phosphorylation of EF-TuSTm); test: Dot blot EF-Tu phosphorylation assay; type: biochemical, Salmonella Typhimurium; conditions: DocSTm 1 μM, EF-TuSTm 3 μM, peptide 10 μM to 5 nM (3-fold dilutions), 16 h RT, dot blot anti-phosphothreonine; compared at three times the DocSTm concentration; two independent experiments
Description: Samples were prepared in assay buffer [50 mM HEPES (pH 7.5), 25 mM (NH4)2SO4, 2 mM TCEP, 2 mM MgCl2, and 1 mM ATP] with a final concentration of recombinant Doc at 1 μM, recombinant EF-Tu at 3 μM, and varying concentrations of synthetic Phd peptides (final concentrations: 10 μM to 5 nM). EF-Tu (3 μM) in assay buffer was used as a negative control (no Doc and Phd peptide), while EF-Tu (3 μM) with Doc (1 μM) in assay buffer was used as a positive control (no Doc inhibitor). The final sample volume was 10 μL. Samples were incubated for 16 h at RT and subsequently spotted on a nitrocellulose membrane. Phosphorylated EF-Tu was detected by immunodecoration using a rabbit monoclonal antiphosphothreonine antibody (Abcam, ab218195) at 1:2000 dilution (1 h at 4 °C), followed by incubation with a goat antirabbit IgG (H + L) HRP conjugate antibody (Advansta) at 1:10,000 dilution (1 h at RT). Chemiluminescence was developed using the HRP Luminata Kit (Merck, WBLUR0100) and captured with an ImageQuant LAS4000 Western blot imaging system (GE HealthCare). Each peptide was tested in two independent experiments.

SMILES | Average Tm of DocSTm in the presence of peptide (DocSTm toxin) [°C] | Inhibition of EF-TuSTm phosphorylation by DocSTm (concentration needed for full inhibition) [2] | further results
CCCC[C@H](NC(=O)[C@H](Cc1c[nH]c2ccccc12)NC(=O)c1ccc2c(c1)C(=O)OC21c2ccc(O)cc2Oc2cc(O)ccc21)C(=O)N[C@@H](CCCNC(=N)N)C(=O)N[C@@H](CC(=O)O)C(=O)N[C@@H](CCC(=O)O)C(=O)N[C@@H](Cc1ccccc1)C(=O)N[C@@H](C)C(=O)N[C@@H](C)C(=O)N[C@H](C(=O)N[C@@H](CCCC)C(=O)N[C@@H](CCCNC(=N)N)C(=O)N[C@H](C(=O)N[C@@H](Cc1c[nH]cn1)C(=O)NCC(=O)N[C@@H](CC(N)=O)C(=O)N[C@@H](CCC(=O)O)C(=O)N[C@@H](CC(C)C)C(=O)N[C@@H](CCCNC(=N)N)C(=O)N[C@@H](CCC(=O)O)C(=O)N[C@@H](CC(C)C)C(=O)N[C@@H](C)C(=O)N[C@@H](CC(=O)O)C(=O)N[C@@H](CCCCN)C(=O)O)C(C)C)[C@@H](C)CC [FAM-16] (5FAM-W[Nle]RDEFAAI[Nle]RVHGNELRELADK-OH) |  |  | Cellular uptake into E. coli (penetration efficiency) (E. coli MG1655): 7–14%
CCCC[C@H](NC(=O)[C@H](Cc1c[nH]c2ccccc12)NC(=O)c1ccc2c(c1)C(=O)OC21c2ccc(O)cc2Oc2cc(O)ccc21)C(=O)N[C@@H](CCCNC(=N)N)C(=O)N[C@@H](CC(=O)O)C(=O)N[C@@H](CCC(=O)O)C(=O)N[C@@H](Cc1ccccc1)C(=O)N[C@@H](CCCNC(=N)N)C(=O)N[C@@H](C)C(=O)N[C@H](C(=O)N[C@@H](CCCC)C(=O)N[C@@H](CCCNC(=N)N)C(=O)N[C@H](C(=O)N[C@@H](Cc1c[nH]cn1)C(=O)NCC(=O)N[C@@H](CC(N)=O)C(=O)N[C@@H](CCC(=O)O)C(=O)N[C@@H](CC(C)C)C(=O)N[C@@H](CCCNC(=N)N)C(=O)N[C@@H](CCC(=O)O)C(=O)N[C@@H](CC(C)C)C(=O)N[C@@H](C)C(=O)N[C@@H](CC(=O)O)C(=O)N[C@@H](CCCCN)C(=O)O)C(C)C)[C@@H](C)CC [FAM-19] (5FAM-W[Nle]RDEFRAI[Nle]RVHGNELRELADK-OH) |  |  | Cellular uptake into E. coli (penetration efficiency) (E. coli MG1655): 7–14%
CCCC[C@H](NC(=O)[C@H](Cc1c[nH]c2ccccc12)NC(=O)c1ccc2c(c1)C(=O)OC21c2ccc(O)cc2Oc2cc(O)ccc21)C(=O)N[C@@H](CC(N)=O)C(=O)N[C@@H](CC(N)=O)C(=O)N[C@@H](CCC(=O)O)C(=O)N[C@@H](Cc1ccccc1)C(=O)N[C@@]1(C)CCCC=CCCC[C@@](C)(C(=O)N[C@H](C(=O)N[C@@H](Cc2c[nH]cn2)C(=O)NCC(=O)N[C@@H](CCCNC(=N)N)C(=O)N[C@@H](CCC(N)=O)C(=O)N[C@@H](CC(C)C)C(=O)N[C@@H](CCCNC(=N)N)C(=O)N[C@@H](CCCNC(=N)N)C(=O)N[C@@H](CC(C)C)C(=O)N[C@@H](C)C(=O)N[C@@H](CCCNC(=N)N)C(=O)N[C@@H](CCCCN)C(=O)O)C(C)C)NC(=O)[C@H](CCCC)NC(=O)[C@H]([C@@H](C)CC)NC(=O)[C@H](C)NC1=O [FAM-36] (5FAM-W[Nle]NNEF[S5]AI[Nle][S5]VHGRQLRRLARK-OH; staple 7-11) |  |  | Uptake into S. typhimurium (penetration efficiency) ([1]; 4 or 22 h, M9 minimal medium): 9–30%; Uptake into S. typhimurium (% fluorescent cells) ([1]; 22 h): more than 20%
CCCC[C@H](NC(=O)[C@H](Cc1c[nH]c2ccccc12)NC(C)=O)C(=O)N[C@@H](CCCNC(=N)N)C(=O)N[C@@H](CC(N)=O)C(=O)N[C@@H](CCC(=O)O)C(=O)N[C@@H](Cc1ccccc1)C(=O)N[C@@H](CCCNC(=N)N)C(=O)N[C@@H](C)C(=O)N[C@H](C(=O)N[C@@H](CCCC)C(=O)N[C@@H](CCCNC(=N)N)C(=O)N[C@H](C(=O)N[C@@H](Cc1c[nH]cn1)C(=O)NCC(=O)N[C@@]1(C)CCCC=CCCC[C@@](C)(C(=O)N[C@@H](CC(C)C)C(=O)N[C@@H](C)C(=O)N[C@@H](CC(N)=O)C(=O)N[C@@H](CCCCN)C(=O)O)NC(=O)[C@H](CCCNC(=N)N)NC(=O)[C@H](CC(C)C)NC(=O)[C@H](CCC(N)=O)NC1=O)C(C)C)[C@@H](C)CC [Peptide 29] (Ac-W[Nle]RNEFRAI[Nle]RVHG[S5]QLR[S5]LANK-OH; staple 15-19) | 61.6 ± 0.3 | required a higher concentration for full DocSTm inhibition | 
CCCC[C@H](NC(=O)[C@H](Cc1c[nH]c2ccccc12)NC(C)=O)C(=O)N[C@@H](CC(=O)O)C(=O)N[C@@H](CC(N)=O)C(=O)N[C@@H](CCC(=O)O)C(=O)N[C@@H](Cc1ccccc1)C(=O)N[C@@H](C)C(=O)N[C@@H](C)C(=O)N[C@H](C(=O)N[C@@H](CCCC)C(=O)N[C@@H](C)C(=O)N[C@H](C(=O)N[C@@H](Cc1c[nH]cn1)C(=O)NCC(=O)N[C@@H](CCCNC(=N)N)C(=O)N[C@@H](CCC(N)=O)C(=O)N[C@@H](CC(C)C)C(=O)N[C@@H](CCCNC(=N)N)C(=O)N[C@@H](CCCNC(=N)N)C(=O)N[C@@H](CC(C)C)C(=O)N[C@@H](C)C(=O)N[C@@H](CC(N)=O)C(=O)N[C@@H](CCCCN)C(=O)O)C(C)C)[C@@H](C)CC [Peptide 30] (Ac-W[Nle]DNEFAAI[Nle]AVHGRQLRRLANK-OH) | 56.7 ± 2.6 | higher than three times the DocSTm concentration | ΔTm (thermal shift) of DocSTm in the presence of peptide (DocSTm toxin; SYPRO Orange 3×, 20 mM K2HPO4, 50 mM (NH4)2SO4, pH 8.0, average Tm with peptide minus average Tm of free DocSTm, mean ± SD): ≈ 14 °C
CCCC[C@H](NC(=O)[C@H](Cc1c[nH]c2ccccc12)NC(C)=O)C(=O)N[C@@H](CC(N)=O)C(=O)N[C@@H](CC(N)=O)C(=O)N[C@@H](CCC(=O)O)C(=O)N[C@@H](Cc1ccccc1)C(=O)N[C@@H](C)C(=O)N[C@@H](C)C(=O)N[C@H](C(=O)N[C@@H](CCCC)C(=O)N[C@@H](C)C(=O)N[C@H](C(=O)N[C@@H](Cc1c[nH]cn1)C(=O)NCC(=O)N[C@@H](CCCNC(=N)N)C(=O)N[C@@H](CCC(N)=O)C(=O)N[C@@H](CC(C)C)C(=O)N[C@@H](CCCNC(=N)N)C(=O)N[C@@H](CCCNC(=N)N)C(=O)N[C@@H](CC(C)C)C(=O)N[C@@H](C)C(=O)N[C@@H](CC(N)=O)C(=O)N[C@@H](CCCCN)C(=O)O)C(C)C)[C@@H](C)CC [Peptide 31] (Ac-W[Nle]NNEFAAI[Nle]AVHGRQLRRLANK-OH) | 61.6 ± 1.9 | higher than three times the DocSTm concentration | 
CCCC[C@H](NC(=O)[C@H](Cc1c[nH]c2ccccc12)NC(C)=O)C(=O)N[C@@H](CC(=O)O)C(=O)N[C@@H](CC(N)=O)C(=O)N[C@@H](CCC(=O)O)C(=O)N[C@@H](Cc1ccccc1)C(=O)N[C@@H](C)C(=O)N[C@@H](C)C(=O)N[C@H](C(=O)N[C@@H](CCCC)C(=O)N[C@@H](C)C(=O)N[C@H](C(=O)N[C@@H](Cc1c[nH]cn1)C(=O)NCC(=O)N[C@@H](CCCNC(=N)N)C(=O)N[C@@H](CCC(N)=O)C(=O)N[C@@H](CC(C)C)C(=O)N[C@@H](CCCNC(=N)N)C(=O)N[C@@H](CCCNC(=N)N)C(=O)N[C@@H](CC(C)C)C(=O)N[C@@H](C)C(=O)N[C@@H](CCCNC(=N)N)C(=O)N[C@@H](CCCCN)C(=O)O)C(C)C)[C@@H](C)CC [Peptide 32] (Ac-W[Nle]DNEFAAI[Nle]AVHGRQLRRLARK-OH) | 62.6 ± 1.2 | close to the activity of peptide 1 | 
CCCC[C@H](NC(=O)[C@H](Cc1c[nH]c2ccccc12)NC(C)=O)C(=O)N[C@@H](CC(N)=O)C(=O)N[C@@H](CC(N)=O)C(=O)N[C@@H](CCC(=O)O)C(=O)N[C@@H](Cc1ccccc1)C(=O)N[C@@H](C)C(=O)N[C@@H](C)C(=O)N[C@H](C(=O)N[C@@H](CCCC)C(=O)N[C@@H](C)C(=O)N[C@H](C(=O)N[C@@H](Cc1c[nH]cn1)C(=O)NCC(=O)N[C@@H](CCCNC(=N)N)C(=O)N[C@@H](CCC(N)=O)C(=O)N[C@@H](CC(C)C)C(=O)N[C@@H](CCCNC(=N)N)C(=O)N[C@@H](CCCNC(=N)N)C(=O)N[C@@H](CC(C)C)C(=O)N[C@@H](C)C(=O)N[C@@H](CCCNC(=N)N)C(=O)N[C@@H](CCCCN)C(=O)O)C(C)C)[C@@H](C)CC [Peptide 33] (Ac-W[Nle]NNEFAAI[Nle]AVHGRQLRRLARK-OH) | 63.0 ± 0.8 | higher than three times the DocSTm concentration | 
